# According to the supplement of paper PMC10290057:
# Counter-ions that a name gives are not always drawn.
# System: HCT116
# Test: efficacy (fitted maximal change in viability relative to DMSO control); higher = less cytotoxic (negative = loss of viability)
# Settings: 48 h
# 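Note: Luminescence-based viability readout, five doses per compound, normalized against on-plate DMSO and empty-well controls, followed by dose-response curve fitting for every drug.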
row,SMILES,efficacy
1,CCCCc1ccc(N[S+](=O)([O-])c2ccc(C)c(C(=O)N3CCN(c4cccc(C)c4C)CC3)c2)cc1 [IDH-001],-48.4%
2,Cc1ccccc1C(C(=O)NC1CCCCC1)N(C(=O)CNc1ccc(C#N)cc1)c1cccc(F)c1 (centres undefined) [IDH-C227],-56.1%
3,COc1cc2ncn(-c3cc(OCc4ccccc4[S+](C)(=O)[O-])c(C#N)s3)c2cc1OC [IKK-3 Inhibitor IX],-13.8%
4,OC(=O)CNC(=O)\C1=C(/O)C2=CC=CC=C2N(CC3=CC=CC=C3)C1=O [IOX2],9.68%
5,O=C(O)c1ccc(O)c2ncccc12 [IOX-1],-36.7%
6,Oc1ccc2ccccc2c1SSc1c(O)ccc2ccccc12 [IPA-3],-115%
7,Cc1cc(/C=c2/sc3nc4ccccc4n3c2=O)c(C)n1-c1ccccc1 [ITX3],-19.9%
8,CC1=CC=C2N=C(NC(=O)CS\C3=N\C4=C(\SCC4)C(=O)N3C5=CC=CC=C5)SC2=C1 [IWP-2],-12.9%
9,O=C1CC[C@H](N2Cc3c(OCc4ccc(CN5CCOCC5)cc4)cccc3C2=O)C(=O)N1 [Iberdomide],-18.8%
10,CC(C)(N)C(=O)N[C@H](COCc1ccccc1)C(=O)N1CCC2(CC1)CN([S+](C)(=O)[O-])c1ccccc12 [Ibutamoren mesilate],-50.7%
11,CCCCCCCN(CC)CCCC(O)c1ccc(N[S+](C)(=O)[O-])cc1 (centres undefined) [Ibutilide fumarate],-59.1%
12,COC1=CC=C(C=C1)C/2=C(OC3O[C@@H](C)[C@H](O)[C@@H](O)[C@H]3O)/C(=O)C4=C(O2)C(=C(OC5O[C@H](CO)[C@@H](O)[C@H](O)[C@H]5O)C=C4O)CC=C(C)C (some centres undefined) [Icariin],-27.5%
13,COC1=CC=C(C=C1)/C2=C(O)/C(=O)C3=C(O)C=C(O)C(=C3O2)CC=C(C)C [Icaritin],-16.5%
14,C#Cc1cccc(Nc2ncnc3cc4c(cc23)OCCOCCOCCO4)c1 [Icotinib hydrochloride],-36%
15,CC[C@H](NC1=C2N=C[NH]C2=NC=N1)C/3=N/C4=C(C(=CC=C4)F)C(=O)N3C5=CC=CC=C5 [Idelalisib],-25.3%
16,C[S+]([O-])(=O)NC1=CC2=C(C=C1OC3=CC=CC=C3)C(=O)\C(=C/O2)NC=O [Iguratimod],-14.8%
17,"CNC(=O)[C@H](Cc1c[nH]c2ccccc12)NC(=O)[C@@H](CC(=O)NO)CC(C)C [Ilomastat (GM6001, Galardin)]",-7.39%
18,C[C@@H]\1/N=C(/N)NC(=N1)\N(C)C [Imeglimin],-5.96%
19,CC(C)Cn1cnc2c(N)nc3ccccc3c21 [Imiquimod],-14.9%
20,CC1Cc2ccccc2N1NC(=O)c1ccc(Cl)c([S+](N)(=O)[O-])c1 (centres undefined) [Indapamide],-9.36%
21,O=C1Nc2ccccc2/C1=C1\Nc2ccccc2C1=O [Indirubin],-9.8%
22,Cn1cc(C[C@@H](N)C(=O)O)c2ccccc21 [Indoximod],-9.77%
23,C/C=C(/C)C(=O)O[C@H]1C(C)=CC23C(=O)C(C=C(CO)[C@@H](O)[C@]12O)[C@H]1[C@@H](C[C@H]3C)C1(C)C (some centres undefined) [Ingenol mebutate],-63.6%
24,NC(=O)c1ccc(I)c([N+](=O)[O-])c1 [Iniparib],-14.6%
25,CC(C)Oc1ccc2c(=O)c(-c3ccccc3)coc2c1 [Ipriflavone],-27.7%

row,SMILES,efficacy
1,Cc1csc(NC(=O)c2sc3nc4c(c(C(F)(F)F)c3c2N)CCC4)n1 [Irestatin 9389],-42%
2,N[S+]([O-])(=O)OC1=CC=C2\C3=C(CCCCC3)/C(=O)OC2=C1 [Irosustat (STX-64)],-30.6%
3,CN[C@@H]1[C@@H](O)[C@@H](O[C@@H]2[C@@H](O)[C@H](O[C@H]3O[C@H](CN)[C@@H](O)[C@H](O)[C@H]3O)[C@@H](N)C[C@H]2NC(=O)C(O)CN)OC[C@]1(C)O.O=S(=O)(O)O (some centres undefined) [Isepamicin sulfate],-15.7%
4,O=C(/C=C/c1ccc(O)cc1)c1ccc(O)cc1O [Isoliquiritigenin],-62%
5,CC(C)NCC(O)c1ccc(O)c(O)c1 (centres undefined) [Isoprenaline hydrochloride],-16.7%
6,CC1=C(/C=C/C(C)=C/C=C/C(C)=C\C(=O)O)C(C)(C)CCC1 [Isotretinoin],-13.5%
7,CCn1c(=O)c2c(nc(/C=C/c3ccc(OC)c(OC)c3)n2C)n(CC)c1=O [Istradefylline],-9.26%
8,N#CCC1(n2cc(-c3ncnc4[nH]ccc34)cn2)CN(C2CCN(C(=O)c3ccnc(C(F)(F)F)c3F)CC2)C1 [Itacitinib],-26.4%
9,CCC(C)N1\N=C/N(C1=O)C2=CC=C(C=C2)N3CCN(CC3)C4=CC=C(OC[C@H]5CO[C@@](C[N]6C=NC=N6)(O5)C7=CC=C(Cl)C=C7Cl)C=C4 (some centres undefined) [Itraconazole],-32.6%
10,COc1cc2c(cc1OC)CC(=O)N(CCCN(C)C[C@H]1Cc3cc(OC)c(OC)cc31)CC2 [Ivabradine hydrochloride],-21.3%
11,CC(=O)OCCN1C(=O)c2c(C)nc3ccc([S+](=O)([O-])N4CCOCC4)cc3c2C1=O [Ivachtin],-16.7%
12,N#Cc1ccnc(N2C(=O)CC[C@H]2C(=O)N(c2cncc(F)c2)[C@H](C(=O)NC2CC(F)(F)C2)c2ccccc2Cl)c1 [Ivosidenib],-25.4%
13,C=CC(=O)Nc1ccc(F)c(-c2ncnc3[nH]cc(C(=O)OCC)c23)c1 [JAK3i],-66%
14,CCOc1ccc(Nc2nc(-c3c(C)nc4ccccn34)cs2)cc1 [JK-184],-56.2%
15,COc1cc(SC)ccc1C(=O)N1CCC(Cc2ccccc2)CC1 [JX-401],-43.4%
16,O=C(Oc1ccc([N+](=O)[O-])cc1)N1CCC(C(O)(c2ccc3c(c2)OCO3)c2ccc3c(c2)OCO3)CC1 [JZL-184],9.17%
17,O=C(Oc1ccc([N+](=O)[O-])cc1)N1CCN(Cc2cccc(Oc3ccccc3)c2)CC1 [JZL-195],-38.1%
18,CCOC(=O)c1ccnc(CNCC(=O)N(CC)CCN(C)C)c1 [KDM5-C70],11.1%
19,NC(=O)c1cccc(-c2cccc(OC(=O)NC3CCCCC3)c2)c1 [KDS-4103],-18%
20,CCOC(=O)c1c(/C(C#N)=C\N)c2ccc(Cl)c(Cl)c2n1C [KH-CB19],-9.36%
21,COc1cc([C@@H](CC(=O)O)c2ccc(C)c(CN3C[C@@H](C)Oc4ccccc4[S+]3(=O)[O-])c2)cc2nnn(C)c12 [KI-696],-21.8%
22,C[S+](=O)([O-])N(Cc1ccco1)CC(O)Cn1c2ccccc2c2ccccc21 (centres undefined) [KL001],-21.8%
23,CN(C(Cc1ccc(OS(=O)(=O)c2cccc3cnccc23)cc1)C(=O)N1CCN(c2ccccc2)CC1)S(=O)(=O)c1cccc2cnccc12 (centres undefined) [KN-62],-21.2%
24,CCCNC(=O)Nc1ccc(Oc2ncnc3cc(OC)c(OC)cc23)cc1Cl [KRN-633],-12.8%
25,OC1=CC=C(C=C1)\C2=C(O)\C(=O)C3=C(O2)C=C(O)C=C3O [Kaempferol],12.7%

row,SMILES,efficacy
1,O=C(c1ccccc1)c1ccc2n1CCC2C(=O)O (centres undefined) [Ketorolac],-7.25%
2,CN1CCC(=C2c3ccccc3CC(=O)c3sccc32)CC1 [Ketotifen],-39.1%
3,c1coc(CNc2ncnc3nc[nH]c23)c1 [Kinetin],-22.2%
4,N[C@@H](Cc1cc(I)c(Oc2cc(I)c(O)c(I)c2)c(I)c1)C(=O)O [L-Thyroxine],-8.54%
5,CN[C@@H](C)C(=O)N[C@H](C(=O)N1CCC[C@H]1c1nc(C(=O)c2ccc(F)cc2)cs1)C1CCCCC1 [LCL-161],-23.8%
6,C/C(O)=C(\C#N)C(=O)Nc1cc(Br)ccc1Br [LFM-A13],-11.7%
7,CC(N[C@H]1C[C@@H]1c1ccccc1)c1ccc2c(c1)OCCO2 (some centres undefined) [LSD1-C76],-23.9%
8,NCCCC[C@H](NC(=O)[C@@H](NC(=O)[C@H](Cc1c[nH]c2ccccc12)NC(=O)[C@H](CCCCN)NC(=O)[C@H](CCCCN)NC(=O)[C@H](Cc1c[nH]c2ccccc12)NC(=O)[C@H](Cc1c[nH]c2ccccc12)NC(=O)[C@H](CCCCN)NC(=O)[C@@H](N)CCCCN)C(c1ccccc1)c1ccccc1)C(N)=O [LTX-315],-89.2%
9,COC[C@@H](NC(C)=O)C(=O)NCc1ccccc1 [Lacosamide],-14.4%
10,NC\1=N\C(=O)N(\C=C1)[C@@H]2CS[C@H](CO)O2 [Lamivudine],-6.75%
11,Cc1c(OCC(F)(F)F)ccnc1C[S+]([O-])c1nc2ccccc2[nH]1 (centres undefined) [Lansoprazole],-18.3%
12,C[S+](=O)([O-])c1cc(F)cc2c3c(n(Cc4ccc(Cl)cc4)c12)[C@@H](CC(=O)O)CC3 [Laropiprant],-18.4%
13,Nc1cccc2c1CN([C@H]1CCC(=O)NC1=O)C2=O [Lenalidomide],-14%
14,N#Cc1ccc(C(c2ccc(C#N)cc2)n2cncn2)cc1 [Letrozole],-10.3%
15,C[C@H]1COC2=C3N1\C=C(C(O)=O)/C(=O)C3=CC(=C2N4CCN(C)CC4)F [Levofloxacin],-12.3%
16,C[C@@H]\1CC(=O)N\N=C1C2=CC=C(NN=C(C#N)C#N)C=C2 [Levosimendan],-64.6%
17,Clc1cccc(C(c2ccc3nc[nH]c3c2)n2ccnc2)c1 (centres undefined) [Liarozole],-23%
18,CC1(C)Cc2c(-c3ccccc3)c(-c3ccc(Cl)cc3)c(CC(=O)O)n2C1 [Licofelone],-36.6%
19,OCc1ccc(-c2nn(Cc3ccccc3)c3ccccc23)o1 [Lificiguat],-57.1%
20,CC#CCn1c(N2CCC[C@@H](N)C2)nc2c1c(=O)n(Cc1nc(C)c3ccccc3n1)c(=O)n2C [Linagliptin],-31.7%
21,O=C1N(c2ccccc2)c2ccccc2C1(Cc1ccncc1)Cc1ccncc1 [Linopirdine],-12.1%
22,C[S+](=O)([O-])Oc1ccc2c(NC(N)=O)c(C(=O)c3ccc(Cl)cc3Cl)oc2c1 [Lirimilast],-17.7%
23,CCN1\C=C(C(O)=O)/C(=O)C2=C1C(=C(N3CCNC(C)C3)C(=C2)F)F (centres undefined) [Lomefloxacin hydrochloride],-18.8%
24,O=C(O)c1nn(Cc2ccc(Cl)cc2Cl)c2ccccc12 [Lonidamine],-7.79%
